# Legend:
# Assay in all cases: ≥ marks a high value that may be exact or a test limit, other limits are often not marked, values filed in µg/mL are converted to µM
# Bacillus subtilis = test system: Bacillus subtilis
# [1] = test system: Enterococcus faecalis ATCC 29212
# Escherichia coli = test system: Escherichia coli
# [2] = test system: Klebsiella pneumoniae ATCC 13883
# [3] = test system: Pseudomonas aeruginosa ATCC 27853
# [4] = test system: Salmonella enterica subsp. enterica serovar Typhimurium ATCC 14028
# [5] = test system: Staphylococcus aureus ATCC 25923
# [6] = test system: Streptococcus pyogenes ATCC 19615
# [7] = test system: Acinetobacter baumannii ATCC 19606
# Acinetobacter baumannii = test system: Acinetobacter baumannii
# [8] = test system: Candida albicans ATCC 90028
# [9] = test system: Escherichia coli ATCC 25922
# [10] = test system: Staphylococcus aureus ATCC 29213
# Staphylococcus aureus MR = test system: Staphylococcus aureus MR
# [11] = test system: Staphylococcus aureus NCTC 8325
# [12] = test system: Pseudomonas aeruginosa PAO1
# [13] = test system: Staphylococcus aureus USA 300
# Escherichia coli UB1005 = test system: Escherichia coli UB1005
# [14] = test system: Salmonella enterica subsp. enterica serovar Typhimurium C77-31
# [15] = test system: Staphylococcus epidermidis ATCC 12228
smiles,measurement,setting,value
CC[C@H](C)[C@H](NC(=O)CNC(=O)[C@H](CCC(N)=O)NC(=O)[C@H](CC(C)C)NC(=O)[C@H](CC(N)=O)NC(=O)[C@H](CC(C)C)NC(=O)[C@H](Cc1ccccc1)NC(=O)CNC(=O)[C@H](Cc1cnc[nH]1)NC(=O)[C@H](CCCCN)NC(=O)[C@@H](N)CCCN=C(N)N)C(=O)N[C@@H](Cc1ccccc1)C(=O)NCC(=O)N[C@@H](CC(=O)O)C(=O)N[C@@H](Cc1ccc(O)cc1)C(=O)N[C@@H](Cc1ccc(O)cc1)C(=O)N[C@@H](Cc1cnc[nH]1)C(=O)N[C@@H](Cc1ccccc1)C(=O)N[C@@H](Cc1c[nH]c2ccccc12)C(=O)N[C@@H](Cc1cnc[nH]1)C(=O)N[C@@H](CCCN=C(N)N)C(=O)NCC(=O)N[C@H](C(=O)O)C(C)C [RKHGFLNLQGIFGDYYHFWHRGV],MIC,Bacillus subtilis,≥ 100 µM
same,MIC,[1],> 100 µM
same,MIC,Escherichia coli,4 µM
same,MIC,[2],≥ 100 µM
same,MIC,[3],> 100 µM
same,MIC,[4],> 100 µM
same,MIC,[5],> 100 µM
same,MIC,[6],≥ 100 µM
CC[C@H](C)[C@H](NC(=O)[C@H](CCCN=C(N)N)NC(=O)[C@H](CCCCN)NC(=O)[C@@H](NC(=O)[C@@H](NC(=O)[C@H](CCCN=C(N)N)NC(=O)[C@@H](N)CCCCN)[C@@H](C)CC)C(C)C)C(=O)N[C@@H](CCCCN)C(=O)N[C@@H](CCCCN)C(=O)N[C@@H](Cc1ccccc1)C(=O)N[C@@H](CC(C)C)C(=O)N[C@@H](CCCN=C(N)N)C(=O)O [KRIVKRIKKFLR],MIC,[7],≥ 101 µM
same,MIC,Acinetobacter baumannii,≥ 202 µM
same,MIC,[8],2.5 µM
same,MIC,[9],1.25 µM
same,MIC,[3],1.25 µM
same,MIC,[5],≥ 202 µM
same,MIC,[10],2.5 µM
same,MIC,Staphylococcus aureus MR,≥ 202 µM
CC[C@@H](C)[C@H](N=C(O)[C@H](CO)N=C(O)C(CC(C)C)N=C(O)[C@H](CCSC)N=C(O)[C@@H]1CCCN1C(=O)[C@H](CC(C)C)N=C(O)CN=C(O)[C@H](N)Cc1ccccc1)C(O)=N[C@H](CC(C)C)C(=O)N1CCCC1C(O)=N[C@H](CCCCN)C(O)=N[C@H](C)C(O)=N[C@H](CC(C)C)C(O)=N[C@H](CS)C(O)=N[C@H](C(O)=N[C@H](CC(C)C)C(O)=N[C@H](CC(C)C)C(O)=N[C@H](CCCCN)C(O)=N[C@H](CCCNC(=N)N)C(O)=N[C@H](CCCCN)C(O)=N[C@H](CS)C(=O)O)[C@H](C)CC (some centres undefined) [FGLPMLSILPKALCILLKRKC],MIC,[9],12 µM
same,MIC,[11],20 µM
CC(C)C[C@H](NC(=O)[C@H](CC(C)C)NC(=O)[C@H](CCCCN)NC(=O)CNC(=O)[C@H](CC(C)C)NC(=O)[C@H](C)NC(=O)[C@H](CCCCN)NC(=O)[C@H](CC(C)C)NC(=O)[C@H](C)NC(=O)[C@H](CO)NC(=O)[C@H](CC(C)C)NC(=O)[C@H](CC(C)C)NC(=O)CN)C(N)=O [GLLSALKALGKLL],MIC,[9],3.1 µM
same,MIC,[2],3.1 µM
same,MIC,[12],> 25 µM
same,MIC,[13],1.56 µM
CC[C@H](C)[C@H](NC(=O)CN)C(=O)N[C@@H](Cc1ccccc1)C(=O)N[C@H](C(=O)N[C@@H](CCCCN)C(=O)N[C@H](C(=O)N[C@@H](CC(N)=O)C(=O)N[C@@H](CCCCN)C(=O)N[C@@H](CCCCN)C(=O)N[C@@H](CCCCN)C(=O)N[C@@H](C)C(=O)N[C@@H](CCCCN)C(=O)N[C@H](C(=O)NCC(=O)N[C@H](C(=O)N[C@@H](Cc1ccccc1)C(=O)N[C@@H](CC(N)=O)C(=O)N[C@H](C(=O)N[C@H](C(=O)N[C@@H](CCCCN)C(=O)N[C@H](C(=O)N[C@H](C(=O)NCC(=O)N[C@@H](CCCCN)C(=O)N[C@@H](CCC(=O)O)C(=O)N[C@@H](C)C(=O)NCC(=O)N[C@@H](CCSC)C(=O)N[C@@H](CC(=O)O)C(=O)N[C@H](C(=O)N[C@H](C(=O)N[C@@H](CCCN=C(N)N)C(=O)N[C@@H](C)C(=O)NCC(=O)N[C@H](C(=O)N[C@@H](CC(=O)O)C(=O)N[C@H](C(=O)N[C@H](C(=O)N[C@@H](CO)C(=O)N[C@H]1CSSC[C@@H](C(=O)O)NC(=O)[C@H](CCC(=O)O)NC(=O)CNC(=O)[C@H](CCCCN)NC(=O)[C@H]([C@@H](C)CC)NC(=O)[C@H](CCCCN)NC1=O)[C@@H](C)CC)[C@@H](C)O)[C@@H](C)CC)[C@@H](C)CC)C(C)C)[C@@H](C)CC)[C@@H](C)O)[C@@H](C)CC)[C@@H](C)CC)C(C)C)[C@@H](C)O)[C@@H](C)CC)[C@@H](C)O [GIFTKINKKKAKTGVFNIIKTIGKEAGMDVIRAGIDTISCKIKGEC],MIC,[9],1 µM
same,MIC,[11],15 µM
CC[C@H](C)[C@H](NC(=O)[C@H](CC(C)C)NC(=O)[C@@H]1CCCN1C(=O)[C@H](CC(C)C)NC(=O)[C@@H](NC(=O)[C@@H](N)Cc1ccccc1)[C@@H](C)CC)C(=O)N[C@@H](C)C(=O)N[C@@H](CO)C(=O)N[C@@H](Cc1ccccc1)C(=O)N[C@@H](CC(C)C)C(=O)N[C@@H](CO)C(=O)N[C@@H](CCCCN)C(=O)N[C@@H](Cc1ccccc1)C(=O)N[C@@H](CC(C)C)C(N)=O [FILPLIASFLSKFL],MIC,[11],12 µM
CC[C@H](C)[C@H](NC(=O)[C@H](C)NC(=O)[C@@H]1CCCN1C(=O)[C@H](CC(C)C)NC(=O)[C@@H](N)Cc1ccccc1)C(=O)N[C@H](C(=O)NCC(=O)N[C@@H](C)C(=O)N[C@@H](C)C(=O)N[C@@H](C)C(=O)N[C@@H](CCCCN)C(=O)N[C@@H](Cc1ccccc1)C(=O)N[C@@H](CC(C)C)C(=O)N1CCC[C@H]1C(=O)N[C@@H](CCCCN)C(=O)N[C@H](C(=O)N[C@@H](Cc1ccccc1)C(=O)N[C@H]1CSSC[C@@H](C(=O)O)NC(=O)[C@H](CCCCN)NC(=O)[C@H](CCCCN)NC(=O)[C@H](CO)NC(=O)[C@H]([C@@H](C)CC)NC(=O)[C@H](C(C)C)NC1=O)[C@@H](C)CC)C(C)C [FLPAIVGAAAKFLPKIFCVISKKC],MIC,[9],15 µM
same,MIC,[11],3 µM
CC(C)C[C@H](NC(=O)[C@H](CCCN=C(N)N)NC(=O)[C@H](Cc1c[nH]c2ccccc12)NC(=O)[C@H](CCCN=C(N)N)NC(=O)[C@@H](NC(=O)[C@H](Cc1c[nH]c2ccccc12)NC(=O)[C@H](Cc1c[nH]c2ccccc12)NC(=O)[C@H](CCCN=C(N)N)NC(=O)[C@H](CC(C)C)NC(=O)[C@H](Cc1c[nH]c2ccccc12)NC(=O)[C@@H](N)CCCN=C(N)N)[C@@H](C)O)C(=O)N[C@@H](CCCCN)C(N)=O [RWLRWWTRWRLK],MIC,[9],4 µM
same,MIC,Escherichia coli UB1005,2 µM
same,MIC,[14],4 µM
same,MIC,[5],2 µM
same,MIC,[10],4 µM
same,MIC,[15],4 µM
CC[C@H](C)[C@H](NC(=O)[C@@H](NC(=O)[C@@H]1CCCN1C(=O)[C@H](CC(C)C)NC(=O)[C@@H](N)Cc1ccccc1)[C@@H](C)CC)C(=O)N[C@@H](C)C(=O)N[C@@H](CCCCN)C(=O)N[C@H](C(=O)N[C@@H](CC(C)C)C(=O)N[C@@H](CO)C(=O)NCC(=O)N[C@@H](CC(C)C)C(=O)N[C@@H](CC(C)C)C(N)=O)C(C)C [FLPIIAKVLSGLL],MIC,[11],15 µM
CC[C@H](C)[C@H](NC(=O)[C@H](CC(C)C)NC(=O)[C@H](CCCCN)NC(=O)[C@H](CO)NC(=O)[C@@H](NC(=O)[C@H](C)NC(=O)[C@H](CCCCN)NC(=O)[C@@H](NC(=O)[C@H](C)NC(=O)[C@H](Cc1cnc[nH]1)NC(=O)[C@@H]1CCCN1C(=O)[C@@H](NC(=O)[C@H](CC(C)C)NC(=O)[C@@H]1CCCN1C(=O)CNC(=O)[C@@H](NC(=O)[C@H](Cc1ccc(O)cc1)NC(=O)[C@H](CCCCN)NC(=O)[C@H](CCSC)NC(=O)[C@H](Cc1ccccc1)NC(=O)CN)[C@@H](C)CC)[C@@H](C)CC)C(C)C)[C@@H](C)CC)C(=O)O [GFMKYIGPLIPHAVKAISKLI],MIC,[8],≥ 100 µM
same,MIC,[9],25 µM
same,MIC,[11],≥ 50 µM
CC[C@H](C)[C@@H]1NC(=O)[C@H](C)NC(=O)[C@@H](NC(=O)[C@H](Cc2ccccc2)NC(=O)[C@@H](NC(=O)[C@H](CCCCN)NC(=O)[C@@H]2CCCN2C(=O)[C@H](CC(C)C)NC(=O)[C@H](Cc2ccccc2)NC(=O)[C@H](CC(N)=O)NC(=O)[C@H](C)NC(=O)[C@H](C)NC(=O)[C@H](CCSC)NC(=O)CNC(=O)[C@H](C)NC(=O)[C@@H](NC(=O)[C@H](Cc2ccccc2)NC(=O)[C@@H]2CCCN2C(=O)[C@H](CC(C)C)NC(=O)[C@@H](N)Cc2ccccc2)[C@@H](C)CC)[C@@H](C)CC)CSSC[C@@H](C(=O)O)NC(=O)[C@H](CCCCN)NC(=O)[C@H](CCCCN)NC(=O)[C@H](CO)NC1=O [FLPFIAGMAANFLPKIFCAISKKC],MIC,[9],19 µM
same,MIC,[11],8 µM
